Measured values from patent US11013716B2, “Method for providing an increased expression of telomerase, brain-derived neurotrophic factor, stromal cell-derived factor-1, CXC chemokine receptor 4, and/or immune regulatory factor of stem cell” (HAWKING BIOLOGICAL TECHNOLOGY CO., LTD, priority 2013, dated 2021).

Legend:
[1] = Phase I metabolism assay of n-butylidenephthalide, rat hepatic microsomes, LC-MS/MS; format: in vitro ADME; conditions: Rat hepatic microsomes 0.5 mg/mL, BP 2 mM, NADPH, 37° C., 60 minutes
Text: (§1) It has been known that the medicine metabolic pathway within an organism's liver can be primarily divided into phase I and phase II metabolism. Phase I metabolism occurs mainly by the redox reaction or hydrolysis reaction of medicine, while phase II metabolism occurs mainly by […]. This example simulated the phase I and II metabolism of butylidenephthalide that occur within an organism's liver by respectively mixing butylidenephthalide with hepatic microsomes or cryopreserved hepatocytes in vitro. The products in the reaction solution were analyzed by liquid chromatograph-tandem mass spectrometer (LC-MS/MS) to identify the metabolites and the metabolic profile. The experimental steps were as follows:
(§2) n-Butylidenephthalide (comprising Z-BP 95%+E-BP 5%; purchased from ECHO Chemical) (2 mM) was mixed respectively with K3PO4 buffer solution (100 mM, pH7.4) containing human, rats or dogs hepatic micrsomes (0.5 mg/mL). The mixture was maintained at 37° C. for 10 minutes, and then pre-warmed cofactors (NADPH (2 mM) and MgCl2 (3 mM)) were added thereto and the mixture was incubated at 37° C. for 60 minutes. Thereafter, 3-fold volume of acetonitrile containing 0.1% formic acid was added to the mixture to terminate the reaction. The mixture was centrifuged at 13000 rpm for 5 minutes. The supernatant was then collected and analyzed by LC-MS/MS to identify the metabolites.
(§3) The samples obtained from (1) and (2) were separately dissolved in acetonitrile/0.1% formic acid, centrifuged at 45000 g, 4° C. for 10 minutes. Then, an aliquot (20 μl) of each sample was injected into an autosampler vial (Agilent Technologies, USA) of a LC-MS/MS system to perform LC-MS/MS analysis. The LC-MS/MS system comprises an ABSCIEX 5500 Q TRAP™ system with 1200SL HPLC system (Agilent Technologies, USA), a HPLC column (Symmetry® C18, 3.5 μM, 4.6×75 mm), and a autosampler (Agilent Technologies, USA). A two-solvent system (solvent A: 0.1% formic acid; solvent B: methanol containing 0.1% formic acid) was used to perform HPLC at a flow rate of 0.8 mL/min. The HPLC gradient system was set as follows: 0 to 2 minutes held at 10% solvent B; 2 to 7 minutes with a gradient from 10% to 95% solvent B; 7 to 12 minutes held at 95% solvent B; 12 to 14 minutes with a gradient from 95% to 10% solvent B; 14 to 20 minutes held at 10% solvent B; and the retention time of HPLC analysis is 20 minutes. The mass spectrometry analysis was performed in positive ion electrospray ionization (+ESI) mode at 5.5 kV, 550° C., and N2 (nitrogen) was used as an auxiliary gas. The most intense peaks in the LC-MS/MS spectrum and the mass-shifted peaks in the LC-MS/MS spectrum of each sample as compared to n-butylidenephthalide spectrum were analyzed by LightSight™ Software to determine the metabolites in the samples and identifying the biotransformation pathway and metabolic profile of n-butylidenephthalide in an organism. The results are shown in Table 1, Table 2, FIG. 1A, FIG. 1B and FIG. 1C.

[2] = Phase I metabolism assay of n-butylidenephthalide, dog hepatic microsomes, LC-MS/MS; format: in vitro ADME; conditions: Dog hepatic microsomes 0.5 mg/mL, BP 2 mM, NADPH, 37° C., 60 minutes
Text: as §1, §2, §3

[3] = Phase I metabolism assay of n-butylidenephthalide, human hepatic microsomes, LC-MS/MS; format: in vitro ADME; conditions: Human hepatic microsomes 0.5 mg/mL, BP 2 mM, NADPH, 37° C., 60 minutes
Text: as §1, §2, §3

[4] = test system: SOD1-G93A transgenic mice; experiment: Survival of SOD1-G93A transgenic mice (amyotrophic lateral sclerosis model); format: in vivo; conditions: oral
Text: It has been known that about 20% of amyotrophic lateral sclerosis patients were associated with mutations in the gene that encodes Cu/Zn superoxide dismutase enzyme (SOD1), and G93A was the major mutation site.
(§4) This example used the above SOD1-G93A transgenic mice as the object of study to perform in vivo analysis.

[5] = test system: SOD1-G93A transgenic mice; experiment: BBB scale of the hind limbs of SOD1-G93A transgenic mice; format: in vivo; conditions: 500 mg/kg once daily oral; FIG. 3
Description: as §4
After the mice were treated for 30 days, the hind limbs of the mice were examined by BBB scale (Basso, Beattie, and Bresnahan (BBB) Locomotor Rating Scale). […] BBB scale is used to record the efficiency of the treatments.

telomerase [6] = experiment: Telomerase expression level of ADSCs (Telomerase PCR ELISA kit); format: cell-based, human; conditions: 100 μM or 250 μM, 24 hours; FIG. 4
Description: (§5) Human ADSCs were isolated from human adipose tissue by the following steps. Human adipose tissue from clinical research was washed with equal volumes of phosphate-buffered saline (PBS) and minced with fine scissors. Then, the tissue was digested with 0.075% collagenase type I (Sigma-Aldrich Co., St. Louis, Mo., USA) at 37° C. for 30 to 60 minutes, and a Dulbecco's modified Eagle's medium (DMEM)/F-12 (Invitrogen, Carlsbad, Calif., USA) containing 10% fetal bovine serum (FBS, Invitrogen) was added to terminate the digestion. The digested adipose tissue cells were filtered through a 100 μm nylon mesh to remove the cellular debris. The cell suspension was centrifuged for 10 minutes to obtain a pellet and cultured at 37° C., 5% CO2 in a culture media (DMEM/F-12 containing 10% FBS, 100 U/mL penicillin, and 100 μg/mL streptomycin). Following the incubation, the plates were washed with PBS to remove the residual non-adherent red blood cells. […]
The ADSCs were cultured in a 10 cm dish, and treated with valproic acid (VPA) (1 μM or 10 μM) or BP (comprising Z-BP 95%+E-BP 5%; purchased from ECHO Chemical) (100 μM or 250 μM) at different doses for 24 hours. Then, the telomerase expression level of the ADSCs was determined by a Telomerase PCR ELISA kit (Cat. No. 11854666910, Roche). […]

[7] = test system: brain-derived neurotrophic factor (BDNF); experiment: Gene expression level in ADSCs by RT-PCR: BDNF; format: cell-based, human; conditions: ADSCs, 10, 20 or 50 μg/ml (especially 20 μg/ml), 12 hours; FIG. 5
Description: as §5
(§6) ADSCs (2×10^5 cells/well) were cultured in a 6 well dish in a 37° C. incubator overnight. […] Thereafter, the gene expression levels of brain-derived neurotrophic factor (BDNF), stromal cell-derived factor-1 (SDF1), C-X-C chemokine receptor type 4 (CXCR4), interleukin 6 (IL-6), and interleukin 8 (IL-8) of the ADSCs were determined by RT-PCR. […]

[8] = test system: stromal cell-derived factor-1 (SDF1); experiment: Gene expression level in ADSCs by RT-PCR: SDF1; format: cell-based, human; conditions: ADSCs, 10, 20 or 50 μg/ml (especially 20 μg/ml), 12 hours; FIG. 5
Description: as §5, §6

[9] = test system: C-X-C chemokine receptor type 4 (CXCR4); experiment: Gene expression level in ADSCs by RT-PCR: CXCR4; format: cell-based, human; conditions: ADSCs, 10, 20 or 50 μg/ml (especially 20 μg/ml), 12 hours; FIG. 5
Description: as §5, §6

interleukin 6 (IL-6) = experiment: Gene expression level in ADSCs by RT-PCR: IL-6; format: cell-based, human; conditions: ADSCs, 10, 20 or 50 μg/ml, 12 hours; FIG. 5
Description: as §5, §6

interleukin 8 (IL-8) = experiment: Gene expression level in ADSCs by RT-PCR: IL-8; format: cell-based, human; conditions: ADSCs, 10, 20 or 50 μg/ml, 12 hours; FIG. 5
Description: as §5, §6

dog hepatocytes = experiment: Phase II metabolism assay of n-butylidenephthalide, dog hepatocytes, LC-MS/MS; format: in vitro ADME; conditions: Dog cryopreserved hepatocytes, BP 50 μM, 37° C., 6 hours
Text: as §1
(§7) William's E medium containing 5×10^5 thawed human, rat or dog hepatocytes were respectively added into a 12-well culture dish, and the cells were cultured for 6 hours. Then, 0.5 mL of n-butylidenephthalide (comprising Z-BP 95%+E-BP 5%; purchased from ECHO Chemical) (50 μM) was added into the culture dish. After the cells were incubated at 37° C., 95% relative humidity and 5% CO2 for 6 hours, 2 mL of acetonitrile (100%) was added to terminate the reaction. […] The supernatant was then collected, dried, and analyzed by LC-MS/MS to identify the metabolites of n-butylidenephthalide. […]

telomerase [10] = conditions: previous research; cited from earlier work
rat hepatocytes = experiment: Phase II metabolism assay of n-butylidenephthalide, rat hepatocytes, LC-MS/MS; format: in vitro ADME; conditions: Rat cryopreserved hepatocytes, BP 50 μM, 37° C., 6 hours
Text: as §1, §7

human hepatocytes = experiment: Phase II metabolism assay of n-butylidenephthalide, human hepatocytes, LC-MS/MS; format: in vitro ADME; conditions: Human cryopreserved hepatocytes, BP 50 μM, 37° C., 6 hours
Text: as §1, §7

[11] = 500 mg/kg-body weight once daily

| SMILES | Biotransformation pathway (Phase I metabolites of n-butylidenephthalide) [1] | Biotransformation pathway (Phase I metabolites of n-butylidenephthalide) [2] | Biotransformation pathway (Phase I metabolites of n-butylidenephthalide) [3] | other results |
| --- | --- | --- | --- | --- |
| C/C=C/C=C1\OC(=O)c2ccccc21 [Compound (2)] | Dehydrogenation | Dehydrogenation | Dehydrogenation |  |
| CCCC=C1OC(=O)c2ccccc21 [BP, n-butylidenephthalide] |  |  |  | Longevity prolonged as compared to the control group ([4]; 250 mg/kg-body weight twice daily): about 91.3±16 days; Longevity prolonged as compared to the control group [4, 11]: about 22.7±2.8 days; Time after which the BBB scale of the hind limbs decreased rapidly [5]: > 135 days; Telomerase activity (expression level of telomerase) of ADSCs (telomerase [6]): higher telomerase activity; Gene expression level of BDNF [7]: increased; Gene expression level of SDF1 [8]: increased; Gene expression level of CXCR4 [9]: increased; Gene expression level of IL-6 (interleukin 6 (IL-6)): increased; Gene expression level of IL-8 (interleukin 8 (IL-8)): increased |
| CCCCC(=O)c1ccccc1C(=O)O [Compound (5)] | Hydrogenation (forming | Hydrogenation (forming | Hydrogenation (forming |  |
| CC(O)C/C=C1\OC(=O)c2ccccc21 (stereo not drawn) [Compound (4)] | Oxidation | Oxidation | Oxidation |  |
| C/C=C/C=C1\OC(=O)c2c(O[C@@H]3OC(CO)[C@@H](O)[C@H](O)C3O)cccc21 (stereo partly drawn) [Compound (14)] |  |  |  | Biotransformation pathway (Phase II metabolites of n-butylidenephthalide) (dog hepatocytes): Dehydrogenation + |
| CCCCC1(O)OC(=O)c2ccccc21 (stereo not drawn) [Compound (7)] | Hydrogenation (forming | Hydrogenation (forming | Hydrogenation (forming |  |
| C=C1OC(=O)c2ccccc21 [Compound (8)] | Tri-Demethylation | Tri-Demethylation | Tri-Demethylation |  |
| CCCC(CCC)C(=O)O [VPA, valproic acid] |  |  |  | Telomerase activity of ADSCs (telomerase [10]): could increase the telomerase activity |
| C/C=C/C=C1\OC(=O)c2c1cccc2S(=O)(=O)O [Compound (12)] |  |  |  | Biotransformation pathway (Phase II metabolites of n-butylidenephthalide) (rat hepatocytes): Dehydrogenation +; Biotransformation pathway (Phase II metabolites of n-butylidenephthalide) (human hepatocytes): Dehydrogenation + |
| CCCC=C1OC(=O)C2=C1CCC=C2 [ligustilide, 3-butylidene-4,5-dihydrophthalide] |  |  |  | Longevity prolonged as compared to the control group [4, 11]: about 74.8±1.2 days; Time after which the BBB scale of the hind limbs decreased rapidly [5]: > 170 days |
